The values that follow come from patent US20130171103A1, “METHODS FOR TREATING VIRAL CONDITIONS” (PTC Therapeutics, Inc., priority 2010, published 2013).

The nature of data set [1]: Bioavailability in vivo from aqueous suspension. To be noted: administered in an aqueous suspension. The procedure:
It is anticipated that Compound 1205 can be clinically administered via a solid-dosage form. For all the studies outlined herein, Compound 1205 was lyophilized prior to formulation to minimize batch-to-batch variations in particle-size.
The compound was dissolved in acetonitrile at a concentration of 15 mg/mL. An equal amount of water was added to bring the final concentration to 7.5 mg/mL in a 1:1 acetonitrile/water solution (v/v). The solution was frozen on the shelf of the freeze dryer for a minimum of 3 hours and then lyophilized. The resulting solid was determined to be amorphous by differential scanning calorimetry and polarized light microscopy. Suspensions were prepared by the addition of 0.5% HPMC with 1% Tween-80, followed by stirring and homogenization for 2 minutes.

Another data set concerns HT1080 cells. Description: Cell cycle analysis by propidium iodide staining and flow cytometry. Type of data set: cell-based. Conditions: for effect on cell cycle distribution / % Cells In S-Phase: normoxic; for effect on cell cycle distribution: #10 0.3-100 nM, 1205 10 nM; for % Cells In S-Phase: HT1080 cells, 100 nM, 18 hours, DMSO control 17.3, >20% considered active.
Data set [2] is described as follows: Safety pharmacology studies. An excerpt: (§1) Nonclinical safety testing further supports clinical development of Compound #10.
Data set [3] in a line: Cytotoxicity (CC50) in HeLa cells. Conditions: human.
For a further data set, the system named is HT 1080 cells. The experiment in a line: Kinetics of S-phase transit by BrdU incorporation into DNA. Type of data set: cell-based. Conditions: 18-hour treatment. Here is the method:
HT 1080 cells are exposed to BrdU (bromodeoxyuridine, a synthetic nucleoside that is an analogue of thymidine and is incorporated into DNA during the S phase of cell division) (FITC BrdU Flow Kit, BD Pharmingen catalog #552598). Cells are grown and treated as described in Section 9.3.1.3 above with the exception that one hour prior to harvesting by trypsinization, BrdU (final concentration 1 μM) is added to each culture for 1 hour. Cells actively replicating DNA during this brief time incorporate the BrdU into the DNA, which can then be quantified. BrdU content is quantified using the FITC BrdU Flow Kit as instructed by the manufacturer. The process includes fixation (paraformaldehyde) and DNA staining with 7-AAD (7-amino-actinomycin D) followed by incubation with a fluoro-tagged anti-BrdU antibody that specifically recognizes BrdU incorporated into DNA. Dual channel FACS analysis permits assessment of both the DNA content of individual cells and the rate of transit across the S-phase, which is assessed based upon BrdU incorporation over the one hour treatment period.
For orientation: Incorporation of labelled thymidine or its analogues reports DNA synthesis.

Data set [4] can be described thus: in vitro. Conditions: dog.
The nature of data set [5]: Phase 1b and Phase 2 studies in patients with neoplasia (safety). Type of data set: in vivo, human. Conditions: 0.3 mg/kg/dose BID to 200 mg/dose TID, at least 4-6 weeks. Here is the method:
To date, doses of 0.3 mg/kg/dose (˜20 mg/dose) (n=6), 0.6 mg/kg/dose (˜40 mg/dose) (n=9), 1.2 mg/kg/dose (˜80 mg/dose) (n=12) BID have been tested for at least 4 weeks. In addition, 100 mg/dose BID (n=52), 100 mg/dose TID (n=6), 120 mg/dose TID (n=3), 160 mg/dose TID (N=3), and 200 mg/dose TID (n=3) have been tested for at least 6 weeks of continuous treatment.

The subject of a further data set is Adenovirus. Description: Adenovirus CPE protection assay in HeLa cells. Type of data set: cell-based. Conditions: unidentified adenovirus, DNA.
A short description of data set [6]: in vitro. To be noted: African green monkey.
Data set [7] deals with HIV-1. The experiment in a line: HIV-1 CPE protection assay in MT-2 cells. Type of data set: cell-based. To be noted: Human immunodeficiency virus 1, MT2; HIV-1, Retro, MT-2, CPE protection. Here is the method: (§2) The activity against HIV-1 was tested in MT2 cells and PBMCs in cell culture by preventing virus induced cytopathic effect and measuring viral p24 protein in the culture supernatant.

The next data set deals with HCV genotype 1b replicon. The experiment in a line: HCV subgenomic replicon assay, genotype 1b, standard cell culture. Type of data set: cell-based, hepatitis C virus.
The subject of a further data set is Parainfluenza. The experiment in a line: Parainfluenza CPE protection assay in Vero cells. Type of data set: cell-based, parainfluenza virus. Conditions: (−) RNA.
Data set [8] in a line: Phase 1a single-dose study in healthy volunteers. Type of data set: in vivo, human. Conditions: healthy subjects, single doses through 3 mg/kg (~210 mg), highest single dose tested. Here is the method:
Initial clinical evaluation of Compound #10 was performed in healthy volunteers.

A further data set deals with RSV. The experiment in a line: RSV CPE protection assay in Vero cells. Type of data set: cell-based. Conditions: human respiratory syncytial virus.
The nature of data set [9]: Toxicology study in dogs through 28 days. Type of data set: in vivo. Conditions: doses and exposures in excess of therapeutic nonclinical doses.
Description: as §1

The subject of another data set is HSV-1. The experiment in a line: HSV-1 CPE protection assay in Vero cells. Type of data set: cell-based, herpes simplex virus-1. To be noted: Human alphaherpesvirus 1, HSV-1, DNA.
The nature of data set [10]: in vitro. Conditions: human.
The next data set is described as follows: Genotoxicity studies.
Description: as §1

The next data set deals with HT1080 spheroids. The experiment in a line: 3-dimensional growth of HT1080 spheroids (BrdU/7-AAD FACS, morphology). Type of data set: cell-based.
The nature of data set [11]: Cytotoxicity (CC50) in MT-2 cells. Type of data set: cell-based. Conditions: human, MT-2, HIV-1 line.
Data set [12] has as its system HIV-1. The experiment in a line: HIV-1 p24 ELISA assay in PBMCs. To be noted: Human immunodeficiency virus 1, PBMC, HIV-1, Retro. Type of data set: cell-based. Here is the method:
as §2

A short description of data set [13]: in vitro. Conditions: African green monkey, CC50 (μM).
Data set [14] in a line: Toxicology study in rats through 28 days. Type of data set: in vivo. To be noted: doses and exposures in excess of therapeutic nonclinical doses.
Description: as §1

For another data set, the system named is Vero. To be noted: WNV line.
Data set [15] in a line: Cytotoxicity (CC50) in PBMCs. Type of data set: cell-based. To be noted: human, HIV-1 line.
For a further data set, the system named is Influenza A. Description: microbe, parasite or virus in culture. To be noted: MDCK. Type of data set: cell-based.
The test system of a further data set is Dengue 2. The experiment in a line: Dengue 2 CPE protection assay in Vero E6 cells. Type of data set: cell-based. Conditions: Dengue virus, Vero C1008, Dengue 2, (+) RNA.

SMILES strings stand for the structures. “And” between values parts separate entries of the source, which are not always exact repeats. Identical values can stand only once. Where only a bound is given, the exact number is not on record here.

Take `O=C(Oc1ccc(Cl)cc1)N1CCc2c([nH]c3ccc(Cl)cc23)[C@@H]1c1ccc(OCC[C@H](O)CO)cc1` [Compound 1205]: in data set [1], the “bioavailability in vivo” value is “bioavailable”. The “effect on cell cycle distribution” value in the data set with HT1080 cells (HT1080, 18 hours) is on record as “induced a redistribution of the cycling characteristics of the cell population”.

For the compound `O=C(Oc1ccc(Cl)cc1)N1CCc2c([nH]c3ccc(Cl)cc23)C1c1ccc(OCCN2CCOCC2)cc1` (stereo not drawn) [Compound 331], the “% Cells In S-Phase” value in the data set with HT1080 cells was determined as 16.4%.

Regarding `COc1ccc([C@H]2c3[nH]c4ccc(Cl)cc4c3CCN2C(=O)Oc2ccc(Cl)cc2)cc1` (racemic) [#10], the “safety pharmacology finding” value in data set [2] is given as “no adverse off-target effects”. Besides, the CC50 is more than 1 µM in data set [3]; more than 1 µM in the data set “in vitro [4]”; more than 1 µM in “in vitro [6]”; more than 1 µM in “in vitro [10]”; 0.0041 µM in data set [11]; 0.7 µM and 0.083 µM in the data set “in vitro [13]”. For the same compound, the CC50 in the data set with Vero is more than 1 µM; in data set [15], 0.68 µM. Further, the “BrdU incorporated by individual cells during one-hour pulse versus DMSO control” value with HT 1080 cells is listed as “less BrdU”. Besides, the “percentage of cells residing in S-phase” value in the data set with HT 1080 cells (increasing doses (1-100 nM)) is “net increase”. Also, in data set [5], the “clinical tolerability” value is “generally well tolerated”. Also, the IC50 – broadly, the midpoint of a concentration-inhibition curve – in the data set on Adenovirus is more than 1 µM; in the data set on HIV-1 [7] it was 0.022 µM; in the data set with Parainfluenza it was 0.029 µM; in the data set on RSV, 0.25 µM; in the data set with HSV-1 it was more than 1 µM; in the data set with HIV-1 [12], more than 1 µM. In addition, the IC50 in the data set with Influenza A and in the data set with Dengue 2 was more than 1 µM each time. Also, the IC90 (commonly the point of the concentration-response curve where the effect stands at 90%) with Adenovirus was more than 1 µM; with Parainfluenza, 0.044 µM; with RSV, not below 0.16 µM; in the data set with HSV-1, more than 1 µM; in the data set with Influenza A, more than 1 µM; in the data set on Dengue 2, more than 1 µM. In the data set with HCV genotype 1b replicon, the “antiviral activity in HCV replicon systems” value is recorded as “potent in vitro inhibitory activity”. In addition, in data set [8], the “clinical safety” value is on record as “acceptable safety”. In addition, the “tolerability in toxicology study” value in data set [9] and in data set [14] was “good tolerability” throughout. In the data set “Genotoxicity studies”, the “genotoxicity finding” value is listed as “no evidence of genotoxic effects”. In the data set with HT1080 spheroids (24 or 48 hours, 10 nM or 50 nM), the “percentage of spheroid cells that incorporated BrdU (cells in S-phase)” value was “not significantly altered”. Further, the “gross morphology of spheroids” value in the data set with HT1080 spheroids (day 5 of treatment, 10 nM or 50 nM) is reported as “indistinguishable from one another”. Further, the “morphology of spheroids” value with HT1080 spheroids (maintained in presence of compound for three weeks) is “no obvious morphological changes”. Moreover, the “cell cycle distribution of HT1080 spheroids” value in the data set on HT1080 spheroids (treated for 24 hours) and in the data set on HT1080 spheroids (treated for 48 hours) was “not affected” each time. Also, the “concentration from which an accumulation of cells in S phase is observed” value in the data set on HT1080 cells (HT1080, 18 hours) is given as not below 1 nM. Also, the “effect on cell cycle distribution” value in the data set on HT1080 cells (HT1080, 18 hours) is “induced a redistribution of the cycling characteristics of the cell population”.

For the compound `O=C(Oc1ccc(Cl)cc1)N1CCc2c([nH]c3ccc(Cl)cc23)C1c1ccc(OCCN2CCCCC2)cc1` (stereo not drawn) [Compound 1736], the “% Cells In S-Phase” value with HT1080 cells is 16.8%.
